Where two headings read alike, the source gives them in different places.
Key:
p-Ser97 of FLAG-DYRK1A = assay: p-Ser97 signal of FLAG-DYRK1A in HEK293 cells treated with phosphatase inhibitors; format: cell-based; settings: HEK293, with doxycycline 8 h
Excerpt: blotanalysisusing antibodies against p- Ser97 and FLAG. If Ser97 autophosphorylation were mediated by an intermolecular mechanism, then Ser97 of the kinase- dead K188R mutant would be phosphorylated when expressed in the presence of DD-FLAG-DYRK1A. However, in spite of the excess amount of DD- FLAG-DYRK1A, the phosphorylation of Ser97 in the kinase- dead mutant didnot increase compared toresults obtainedin the absence of DD- FLAG-DYRK1A.
Representative data from the triplicate experiments is shown.
(b) HEK293 cells harbouring the empty vector or the expression vector of DD -FLAG-DYRK1A with the bicistronic expression cassette of the kinase- dead FLAG- DYRK1A (K188R) and EGFP were incubated with Shield- 1 at the indicated concentrations for 16 h. After accumulation of DD- FLAG-DYRK1A, FLAG- DYRK1A (K188R) was expressed for 16 h in the presence of Shield- 1 and doxycycline. The kinase- dead FLAG- DYRK1A (K188R) didnot increase in the presence of DD- FLAG-DYRK1A, supporting the conclusion in (a).Representative data from the triplicate experiments is shown.
(c) p- Ser97 is susceptible to dephosphorylation in HEK293 cells. The HEK293 cells were treated with the indicated concentration of calyculin A, okadaic acid, and cantharidic acid in the presence of doxycycline for 8 h. The total cell lysates were subjected to immunoprecipitation using antibody against FLAG- tag. The immuno- precipitated FLAG- DYRK1A was detected using antibodies against p- Ser97 and FLAG- tag. […]
with cantharidic acid increased the p- Ser97 signal. In contrast, the treatment with calyculin A […]
which may indicate that calyculin A and okadaic acid inhibited dephosphorylation of other sites […]
phosphatases inhibited by these compounds have not been completely identified. Phosphatase(s) inhibited by cantharidic acid may play a role in dephosphorylation of p -Ser97 in the cells. […]
antibody- conjugated beads. […] Each protein was detected with the corresponding antibodies against p- Ser97 or FLAG. […]
(e) The band intensities in ( d) were quantified. […]

DYRK1A [1] = assay: Rescue of Xenopus laevis embryos injected with DYRK1A mRNA; format: in vivo; settings: 2.5 μM
Excerpt: (§1) Uninjected embryos were used as controls. Development of the embryos was allowed to proceed to stage 40 in the dark. Representative images are shown. […] The results are the means±s.e.m. of triplicate experiments (n=55). (c) RT–PCR analysis of the neural marker genes in the head regions of the embryos at stage 25. Each of the marker genes indicates a specific region: NCAM for the pan-neural region, Brain Factor-1 (BF-1) for the forebrain, Pax-6 and Rx-1 for the eye, Otx-2 for the fore-midbrain, Engrailed-2 (En-2) for the mid-hindbrain and Krox-20 for the hindbrain. Ornithine decarboxylase (ODC) is an internal control.
(§2) DYRK1A and DYRK1B mRNA, which were synthesized from linearized vectors with the mMessage mMachine Kit (Life Technologies), were injected into two dorsal blastomeres at the eight-cell-stage for RT–PCR analysis and observation of the embryo phenotypes. […] The head regions of the injected embryos were dissected at the neural stage (stage 25) and the total RNA was isolated using TRIzol (Life Technologies). cDNA synthesis was carried out using Moloney murine leukaemia virus reverse transcriptase (Life Technologies). The sequences of the primer pairs were as follows[51][52]: NCAM, 5′-[…]-3′ and 5′-[…]-3′; Brain factor 1 (BF-1), 5′-[…]-3′ and 5′-[…]-3′; Pax-6, 5′-[…]-3′ and 5′-[…]-3′; Rx1, 5′-[…]-3′ and 5′-[…]-3′; Otx-2, 5′-[…]-3′ and 5′-[…]-3′; En-2, 5′-[…]-3′ and 5′-[…]-3′′; Krox-20, 5′-[…]-3′ and 5′-[…]-3′; ornithine decarboxylase (ODC), 5′-[…]-3′ and 5′-[…]-3′. No randomization was used, and no blinding was done.

DYRK1B = assay: Rescue of Xenopus laevis embryos injected with DYRK1B mRNA; format: in vivo; settings: 2.5 μM
Excerpt: as §1, §2

DYRK1A [2] = molecular target: T1, DYRK1A (Homo sapiens, UniProt Q13627); assay: SPHINKS assay: TAU (Thr212) phosphorylation by induced DYRK1A in HEK293 cells, western blot; format: cell-based; design: expressed in transfected cells; host or cells: Flp-In/T-REx HEK293
Experimental: TAU was expressed in a fused form with the destabilization domain FKBP12 (DD), which causes degradation of DD fusion proteins in the absence of a small molecule, Shield-1 (ref. [26]).
To distinguish kinase inhibition at the transitional state from that after maturation, we set up two types of time courses. […] Following additional incubation with Shield-1 for 2 h, total cell lysates were harvested, then subjected to western blot.
Cells were then cultured 24 h later in the presence of 1 μg ml^−1 of doxycycline (Nacalai Tesque) for 16 h, then treated with 1 μM of Shield-1 (Clontech, Takara Bio) for 2 h. Small molecules from our chemical library were diluted in 1 ml of DMEM and 1% FBS, then administered into the cells at a final concentration of 10 μM (0.1% DMSO), as illustrated in Fig. 1a. Total cell lysates were prepared with SDS-urea buffer (50 mM Tris-HCl, pH 7.0, 1% SDS, 4 M urea, 10% glycerol, 20 mM dithiothreitol, 0.5 mg ml^−1 BSA), then analysed with SDS–polyacrylamide gel electrophoresis (SDS–PAGE) followed by western blot analysis using antibodies against phospho-TAU (pT212) (1/3,000) and total TAU (1/3,000) proteins (Supplementary Fig. 14).
Category Parameter Description
Assay Type of assay Cell-based
Measurement Detection of TAU phosphorylation mediated by
Key reagents Rabbit polyclonal antibody against phosphorylated
Mouse monoclonal antibody against TAU (TAU-5)
ProteoTuner Shield System (Clontech Laboratories)
pcDNA5/FRT/TO vector and Flp-In/T-REx293 cells
Assay protocol Described in the sections "Methods" and "Results"
Library Library size Approximately 200
Library composition Synthetic chemical compounds, including derivatives
Source Laboratory of Chemical Bioscience, Institute of
Biomaterials and Bioengineering, Tokyo Medical and
Screen Format 6-well plates (FALCON) coated with polyethylenimine
Screen Concentration(s) tested 10 µM (0.1% DMSO) in DMEM with 1%FBS
Reagent/ compound dispensing system Manual
Detection instrument and software Western blot using primary anti-phospho- TAU and […]
Chemiluminescence of HRP was detected by the […]

[3] = molecular target: T2, 3xFLAG-DYRK1A / CDC37-nanoKAZ (Homo sapiens, UniProt Q13627); design: expressed in transfected cells; host or cells: 293T cells stably expressing CDC37-nanoKAZ; method as in PMID 26234946; settings: cited from earlier work
human DYRK2 = molecular target: T3, human DYRK2 (Homo sapiens, UniProt Q92630); assay: RI-in vitro kinase assay with DYRKtide; format: biochemical; settings: DYRKtide substrate; Fig. 8b, n=4; read-out: IC50, kinase activity of recombinant DYRK2
T3 construct: His-tagged full-length human DYRK2 recombinant proteins; His; purchased Millipore

GST-DYRK1A-TS WT = GST-DYRK1A-TS WT (Homo sapiens, UniProt Q13627); assay: biochemical
Experimental: (§4) For the in vitro kinase assay, 2 μl (bed vol.) of the resin was incubated in a total volume of 25 μl of AR buffer containing 0.1 mg ml^−1 of BSA, 100 μM of ATP, 50 μM of DYRKtide peptide and the indicated concentrations of the small molecules, for 2 h at 37 °C. The consumption of ATP was measured with ADP-Glo Kinase Assay kit.

human DYRK1B = molecular target: T4, human DYRK1B (Homo sapiens, UniProt Q9Y463); assay: RI-in vitro kinase assay with DYRKtide; format: biochemical
T4 construct: GST-tagged full-length human DYRK1B recombinant proteins; GST; purchased Life Technologies
Experimental: (§3) The RI-in vitro kinase assay was performed as described previously, with some modifications. […] GST-tagged full-length human DYRK1B recombinant proteins and His-tagged full-length human DYRK2 recombinant proteins were obtained from Life Technologies and Millipore, respectively. The kinase reaction was performed in a reaction mixture containing serially diluted inhibitors, 10 mM MOPS-KOH (pH 7.0), 10 mM magnesium acetate, 200 μM EDTA, 1 μM ATP, 0.1–0.4 μCi [γ-^32P]ATP, 5 μM DYRKtide and 0.1–1 μg recombinant kinase, for a final volume of 25 μl. The final concentration of DMSO was adjusted to 1%, regardless of the inhibitor concentration. The reaction mixture was incubated at 30 °C for 10 min and phosphoric acid (final 5%) was then added to stop the reaction. We then dispensed 25 μl of the reaction mixture onto P81, a phosphocellulose membrane (Whatman, GE Healthcare), and washed four times in 5% phosphoric acid. Cherenkov light from the incorporated ^32P was measured using a liquid scintillation counter. The kinase assay conditions, including the incubation period and the concentration of the kinases and substrates, were optimized to maintain linearity during the incubation. The net radioactivity was determined by subtracting the background count from the reaction mixture without kinase, and the data were expressed as a percentage of the control sample containing the solvent.

GST-DYRK1A-TS Y319E = GST-DYRK1A-TS Y319E (Homo sapiens, UniProt Q13627, Y319E); assay: biochemical
Experimental: as §4

[4] = molecular target: T5, human DYRK1A kinase domain (Homo sapiens, UniProt Q13627); assay: RI-in vitro kinase assay with DYRKtide; format: biochemical; settings: for IC50: DYRKtide substrate
T5 construct: His-tagged human DYRK1A kinase domain (residues 127–485) was produced in E. coli; His; made in house; host or cells: E. coli
Experimental: as §3
The amount of incorporated ^32P was calculated from the standard line. The Km, Ki and Vmax values were calculated with Prism5 software (GraphPad Software) using the competitive inhibition model.

[5] = molecular target: GST-DYRK1A-TS Y319E mutant (Homo sapiens, UniProt Q13627, Y319E); assay: biochemical; settings: ATP 100 μM
Experimental: The cells were cultured with IPTG (final 1 mM) for 24 h at 6 °C, then lysed with GET buffer (20 mM HEPES-KOH, pH 8.0, 150 mM NaCl, 1 mM EDTA, 2 mM dithiothreitol, 10% glycerol, 0.5% Empigen BB, 0.5% Triton X-100). Clarified cell lysates were loaded onto a Strep-Tactin Sepharose column (IBA) and the bound proteins were then eluted with GET buffer containing 2.5 mM desthiobiotin (IBA) and 1 mg ml^−1 BSA. The eluates were subsequently applied to GST-Accept resin (Nacalai Tesque). The resin was washed extensively, first with GET buffer, then with AR buffer (5 mM MOPS, pH7.2, 2.5 mM β-glycerol-phosphate, 5 mM MgCl2, 1 mM EGTA, 0.4 mM EDTA, 2 mM tris(2-carboxyethyl)phosphine). […] We then added 5 μl of 2 mg ml^−1 BSA to the suspension (final concentration of 0.1 mg ml^−1), followed by incubation at 37 °C for 30 min. […] The bound proteins were eluted with SDS-urea buffer, then analysed with SDS–PAGE followed by western blot (Supplementary Fig. 14).
The band intensities were measured using the ChemiDoc MP Imaging System (Bio-Rad). In Fig. 6d,e, the relative activity of the phosphorylation was calculated from the ATP-dependent increase in the intensity of the p-Ser97 and p-Tyr signals by subtracting the band intensity in the absence of ATP from that in the presence of ATP.

FLAG-DYRK1A = molecular target: T6, FLAG-DYRK1A (Homo sapiens, UniProt Q13627); assay: 2A peptide bicistronic FLAG-DYRK1A/HA-EGFP expression in HEK293 cells, western blot; format: cell-based
T6 construct: F2A peptide (remnant left on the upstream protein after ribosome skipping) (C); expressed in transfected cells; host or cells: HEK293 (Flp-In/T-REx), vector stably integrated
Experimental: After incubation for 5 h, total cell lysates were subjected to SDS–PAGE followed by western blot analysis using the corresponding antibodies against FLAG, HA and GAPDH. Representative data from the pentaplicate experiments are shown. […] Representative data from the triplicate experiments are shown. […] Total cell lysates were subjected to SDS–PAGE followed by western blot analysis. Representative data from the triplicate experiments are shown.

[6] = molecular target: T2, 3xFLAG-DYRK1A / CDC37-nanoKAZ; settings: 24 h treatment; dose-dependent; 293T
Experimental: The wells were wash three times with ice-cold HENG buffer and then a luminescence assay was performed. […] The luminescence intensity was recorded at 0.1 s intervals for 10 s or 10 min. […] The relative amount of protein bound on the well was estimated from the absorbance.

DYRK1A [7] = molecular target: T1, DYRK1A; settings: DYRKtide, 100 μM ATP; up to 32 μM compound
Experimental: For the in vitro kinase assay, 0.5 μl of the reaction mixture was incubated in a total volume of 25 μl of AR buffer containing 0.1 mg ml^−1 of BSA, 100 μM of ATP, 50 μM of DYRKtide peptide (Anaspec) and the indicated concentrations of the small molecules for 2 h at 37 °C. The consumption of ATP was measured with ADP-Glo Kinase Assay kit (Promega Corporation).

DYRK1A [8] = molecular target: T1, DYRK1A; settings: PURExpress
Experimental: The PURExpress kit (New England Biolabs) was employed. DYRK1A was expressed at 37 °C for 40 min in a 12.5-μl reaction mixture containing 30 ng of pET28a(+)-FLAG-DYRK1A. […] For immunoprecipitation, 100 μl of PBS containing 0.5% Empigen BB, 0.5 mg ml^−1 BSA and 5 mM EDTA was added into the reaction mixture, then incubated with anti-FLAG (M2) beads at 4 °C for 6 h. The samples were prepared with an SDS-urea buffer, then analysed with SDS–PAGE followed by western blot (Supplementary Fig. 14). The band intensities were measured using the LAS-3000 (Fujifilm) and Multi Gauge software (Fujifilm).

mature Drosophila DYRK2 = system: mature Drosophila DYRK2; design: method as in PMID 17188038; settings: cited from earlier work
[9] = system: transitional intermediate of Drosophila DYRK2; design: method as in PMID 17188038; settings: cited from earlier work

T3 sequence (Q92630 whole entry): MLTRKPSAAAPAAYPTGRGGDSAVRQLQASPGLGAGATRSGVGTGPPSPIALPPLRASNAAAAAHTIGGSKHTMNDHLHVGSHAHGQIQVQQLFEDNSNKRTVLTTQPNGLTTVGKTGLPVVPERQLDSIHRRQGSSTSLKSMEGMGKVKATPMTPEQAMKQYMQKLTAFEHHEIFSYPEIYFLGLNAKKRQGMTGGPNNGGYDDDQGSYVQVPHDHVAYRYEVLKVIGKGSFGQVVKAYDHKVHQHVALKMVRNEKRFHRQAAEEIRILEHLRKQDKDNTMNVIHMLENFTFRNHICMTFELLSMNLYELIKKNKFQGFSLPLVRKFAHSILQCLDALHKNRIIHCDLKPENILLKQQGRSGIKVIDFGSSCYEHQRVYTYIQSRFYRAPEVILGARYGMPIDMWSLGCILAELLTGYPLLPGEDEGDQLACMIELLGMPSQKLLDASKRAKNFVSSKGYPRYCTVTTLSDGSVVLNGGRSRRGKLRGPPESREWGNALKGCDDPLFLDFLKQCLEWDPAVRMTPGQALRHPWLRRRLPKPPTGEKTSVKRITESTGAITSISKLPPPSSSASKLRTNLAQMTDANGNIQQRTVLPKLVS
T4 sequence (Q9Y463 whole entry): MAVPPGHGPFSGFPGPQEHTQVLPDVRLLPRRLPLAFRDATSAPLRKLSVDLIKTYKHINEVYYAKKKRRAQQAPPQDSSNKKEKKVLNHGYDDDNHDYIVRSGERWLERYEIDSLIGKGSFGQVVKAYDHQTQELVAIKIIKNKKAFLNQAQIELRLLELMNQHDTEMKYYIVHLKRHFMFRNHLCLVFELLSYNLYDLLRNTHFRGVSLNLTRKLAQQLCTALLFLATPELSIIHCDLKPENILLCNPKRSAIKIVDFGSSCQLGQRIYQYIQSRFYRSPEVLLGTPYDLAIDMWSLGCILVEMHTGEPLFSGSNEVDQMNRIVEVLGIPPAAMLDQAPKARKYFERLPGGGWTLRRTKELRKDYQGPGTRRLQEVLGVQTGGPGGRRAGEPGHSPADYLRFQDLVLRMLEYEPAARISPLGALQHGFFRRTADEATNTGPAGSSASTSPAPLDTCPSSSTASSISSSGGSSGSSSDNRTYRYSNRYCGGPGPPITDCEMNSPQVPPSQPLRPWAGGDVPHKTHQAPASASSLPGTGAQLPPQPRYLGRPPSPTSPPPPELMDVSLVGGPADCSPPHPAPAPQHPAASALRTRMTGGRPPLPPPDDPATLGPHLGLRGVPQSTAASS

CC1(C(=O)O)C2CCC(O2)C1(C)C(=O)O (stereo not shown) [cantharidic acid]
p-Ser97 signal in FLAG-DYRK1A (p-Ser97 of FLAG-DYRK1A): increased

C=C1[C@@H](O)[C@@H]2O[C@]3(CC[C@H](/C=C/[C@@H](C)[C@@H]4CC(C)=C[C@@]5(O[C@H](C[C@@](C)(O)C(=O)O)CC[C@H]5O)O4)O3)CC[C@H]2O[C@@H]1[C@@H](O)C[C@H](C)[C@H]1O[C@@]2(CCCCO2)CC[C@H]1C [okadaic acid]
p-Ser97 signal in FLAG-DYRK1A (p-Ser97 of FLAG-DYRK1A): did not increase

CCN1/C(=C/C(C)=O)Sc2ccc(OC(C)=O)cc21 [proINDY]
rescue of embryos injected with DYRK1A mRNA (small eyes) (DYRK1A [1]; Fig. 9b): almost completely rescued
expression of neural marker genes in DYRK1A-overexpressing embryos (DYRK1A [1]; RT-PCR, stage 25 head regions): increased
developmental malformation induced by DYRK1A (DYRK1A [1]; stage 40 tadpoles): repressed
tadpoles developed normally when injected with DYRK1B mRNA (DYRK1B; Fig. 9b): 89.1%
expression of neural marker genes in DYRK1B-overexpressing embryos (DYRK1B; RT-PCR, stage 25 head regions): increased
developmental malformation induced by DYRK1B (DYRK1B; stage 40 tadpoles): repressed

CCN1/C(=C/C(C)=O)Sc2ccc(O)cc21 [INDY]
TAU phosphorylation in Tc 2 (DYRK1A [2]; 10 μM, compound added after accumulation of mature DYRK1A, HEK293): suppressed
TAU phosphorylation in Tc 1 (DYRK1A [2]; 10 μM, compound added before doxycycline induction, HEK293): suppressed
interaction between DYRK1A and CDC37-nanoKAZ [3]: weakened
IC50 (human DYRK2): 27.7 nM

COC[C@@H]([C@H](O)[C@H](O)C(=O)NCC[C@H](C)c1nc(/C=C/C[C@@H]2O[C@]3(C[C@@H](O)[C@@H]2C)O[C@H]([C@H](C[C@H](O)[C@H](C)[C@H](O)[C@H](C)/C=C(C)/C(C)=C/C=C/C(C)=C\C#N)OC)[C@H](OP(=O)(O)O)C3(C)C)co1)N(C)C [calyculin A]
p-Ser97 signal in FLAG-DYRK1A (p-Ser97 of FLAG-DYRK1A): did not increase

CCOc1cc(/C=C2\SC(=S)NC2=O)ccc1O [RD0392]
TAU phosphorylation in HEK293 cells (DYRK1A [2]; Supplementary Fig. 2b): suppresses
IC50 (GST-DYRK1A-TS WT): 325 nM
IC50 (human DYRK2): 45.6 nM
IC50 (human DYRK1B): 53.3 nM
IC50 (GST-DYRK1A-TS Y319E): 813 nM
Ki [4]: 132 nM
IC50 ([4]; IC50, in vitro kinase activity of recombinant DYRK1A, Fig. 1f, n=4): 60.2 nM
IC50 ([4]; IC50, kinase activity of recombinant DYRK1A, Supplementary Fig. 13d, n=3): 25.6 nM
IC50 ([5]; IC50, Ser97 autophosphorylation): 205 nM
IC50 ([5]; IC50, tyrosine phosphorylation): 514 nM
amount of FLAG-DYRK1A (destabilization) (FLAG-DYRK1A): did not decrease
interaction between DYRK1A and CDC37-nanoKAZ [6]: weakened
substrate phosphorylation by DYRK1A produced in PURExpress (DYRK1A [7]): inhibited
signal from phosphorylated tyrosine in in vitro translation (DYRK1A [8]): no significant effects
Ser97 autophosphorylation in in vitro translation (DYRK1A [8]; compound added prior to transcription): suppressed

Brc1c(Br)c(Br)c2[nH]nnc2c1Br [TBB, 4,5,6,7-tetrabromo-1H-benzotriazole]
inhibition of the mature kinase (Drosophila DYRK2) (mature Drosophila DYRK2): inhibited by both

CC(C)[C@H](CO)Nc1nc(Nc2cccc(Cl)c2)c2ncn(C(C)C)c2n1 [Purvalanol A]
inhibition of the mature kinase (Drosophila DYRK2) (mature Drosophila DYRK2): inhibited by both
inhibition of the transitional intermediate of Drosophila DYRK2 [9]: inhibited
